{"source": "paper PMC2361651", "about": "(British Journal of Cancer, 2005)", "key": {"[1]": {"tested_on": "KIT (the receptor for stem cell factor)", "set-up": "method as in Antonian et al, 2000; Smolich et al, 2001; Yee et al, 2002", "details": "ref Antonian et al, 2000; Smolich et al, 2001; Yee et al, 2002; cited from earlier work"}, "[2]": {"assay": "Plasma pharmacokinetics of SU5416 and metabolites in Phase I patients (HPLC UV)", "type": "in vivo, human", "details": "for Vd / AUC(0-t) / clearance / half-life / Cmax / AUC: human; for half-life: read-out: T1/2λz (converted); for Cmax: read-out: Cmax", "method": "Samples were taken prior to treatment infusion, 15 min into the infusion, at completion of the infusion and then at 5, 10, 20, 30, 45, 60, 120 and 240 min following the infusion. […] At the designated times, 4.0 ml of blood were collected into a lithium heparin tube, gently inverted and placed on ice to maintain the sample at 2–8°C. All samples were immediately centrifuged at 6000 r.p.m. at 4°C for 10 min, the supernatant divided between two 1.5 ml Nalgene cryovials and snap frozen in liquid nitrogen. Separated plasma samples were subsequently stored at −70°C until analysis.\nPharmacokinetic analysis was performed using a fully validated HPLC UV method ([Stopeck et al, 2002]). Plasma samples, standards (25–2000 ng ml^−1) and quality controls spiked with internal standards were extracted with acetonitrile. Following centrifugation, drying and reconstitution in 200 μl mobile phase, 20 μl were analysed by HPLC UV. Chromatography was carried out using a C18 analytical column, with a gradient mobile phase containing acetonitrile and 10 mM ammonium formate at pH 2.6. The flow rate was 0.8 ml min^−1 and the run-time 21 min. Detection was via UV absorption at a wavelength of 440 nm. The accuracy of the assay, reflected in relative error of measured concentration to theoretical (prepared) concentrations, was between 0.9 and 5.6% for all quality control samples.\nPharmacokinetic parameters were evaluated using WinNonLin Software®."}, "[3]": {"details": "in vivo, iv, 145 mg m^−2, individual patients, twice weekly i.v. infusion, dose 145 mg m^−2, cycle 1inj8"}, "[4]": {"details": "in vivo, iv, 145 mg m^−2, individual patients, twice weekly i.v. infusion, dose 145 mg m^−2, cycle 2inj8"}, "[5]": {"details": "in vivo, iv, individual patients, twice weekly i.v. infusion, dose 145 → 190 mg m^−2, cycle 2inj1"}, "[6]": {"details": "in vivo, iv, individual patients, twice weekly i.v. infusion, dose 145 → 190 mg m^−2, cycle 2inj8"}, "[7]": {"details": "in vivo, iv, individual patients, twice weekly i.v. infusion, dose 145 → 190 mg m^−2, cycle 3inj2"}, "[8]": {"details": "plasma, iv, 48 mg m^−2, individual patients, twice weekly i.v. infusion, dose 48 mg m^−2, cycle 1inj2"}, "[9]": {"details": "plasma, iv, 48 mg m^−2, individual patients, twice weekly i.v. infusion, dose 48 mg m^−2, cycle 1inj8"}, "[10]": {"details": "plasma, iv, 48 mg m^−2, individual patients, twice weekly i.v. infusion, dose 48 mg m^−2, cycle 2inj8"}, "[11]": {"details": "plasma, iv, 65 mg m^−2, individual patients, twice weekly i.v. infusion, dose 65 mg m^−2, cycle 1inj2"}, "[12]": {"details": "plasma, iv, 65 mg m^−2, individual patients, twice weekly i.v. infusion, dose 65 mg m^−2, cycle 1inj3"}, "[13]": {"details": "plasma, iv, 65 mg m^−2, individual patients, twice weekly i.v. infusion, dose 65 mg m^−2, cycle 1inj8"}, "[14]": {"details": "plasma, iv, 85 mg m^−2, individual patients, twice weekly i.v. infusion, dose 85 mg m^−2, cycle 1inj2"}}, "note": "Read-outs that look alike come from different tables or passages of the source.", "data": [{"smiles": "Cc1cc(C)c(/C=C2\\C(=O)Nc3ccccc32)[nH]1", "note": "[SU5416, Z-3-[(2,4-dimethylpyrrol-5-yl)methylidenyl]-2-indolinone]", "values": [{"measurement": "inhibition of KIT", "setting": "[1]", "value": "potent competitive inhibitor"}, {"measurement": "average increase in drug clearance", "setting": "[2]; day 4 vs day 25, five of the nine patients dosed at the same level on both days", "value": 22, "unit": "%"}, {"measurement": "dose linearity of kinetics", "setting": "[2]; dose range 48–145 mg m^−2, initial assessment and day 25", "value": "linear kinetics"}, {"measurement": "Vd", "setting": "[2]; in vivo, iv, 48 mg m^−2, individual patients, twice weekly i.v. infusion, dose 48 mg m^−2, cycle 1inj2, read-out: Vz (observed)", "value": 142, "unit": "L"}, {"measurement": "AUC(0-t)", "setting": "[2]; in vivo, iv, 48 mg m^−2, individual patients, twice weekly i.v. infusion, dose 48 mg m^−2, cycle 1inj8", "value": 816, "unit": "ng·h/mL"}, {"measurement": "clearance", "setting": "[2]; in vivo, iv, 85 mg m^−2, individual patients, twice weekly i.v. infusion, dose 85 mg m^−2, cycle 1inj8, read-out: CL (observed) (converted)", "value": 2520, "unit": "mL/min"}, {"measurement": "half-life", "setting": "[2]; in vivo, iv, 145 mg m^−2, individual patients, twice weekly i.v. infusion, dose 145 mg m^−2, cycle 1inj2", "value": 52.2, "unit": "min"}, {"measurement": "AUC(0-t)", "setting": "[2]; [3]", "value": 4430, "unit": "ng·h/mL"}, {"measurement": "Cmax", "setting": "[2]; [3]", "value": 3920, "unit": "ng/mL"}, {"measurement": "half-life", "setting": "[2]; [3]", "value": 34.2, "unit": "min"}, {"measurement": "AUC(0-t)", "setting": "[2]; [4]", "value": 1780, "unit": "ng·h/mL"}, {"measurement": "clearance", "setting": "[2]; in vivo, iv, 145 mg m^−2, individual patients, twice weekly i.v. infusion, dose 145 mg m^−2, cycle 2inj8, read-out: CL (observed) (converted)", "value": 3730, "unit": "mL/min"}, {"measurement": "Cmax", "setting": "[2]; [4]", "value": 1340, "unit": "ng/mL"}, {"measurement": "half-life", "setting": "[2]; [4]", "value": 43.2, "unit": "min"}, {"measurement": "Vd", "setting": "[2]; in vivo, iv, 145 mg m^−2, individual patients, twice weekly i.v. infusion, dose 145 mg m^−2, cycle 2inj8, read-out: Vz (observed)", "value": 233, "unit": "L"}, {"measurement": "AUC(0-t)", "setting": "[2]; [5]", "value": 6450, "unit": "ng·h/mL"}, {"measurement": "clearance", "setting": "[2]; in vivo, iv, individual patients, twice weekly i.v. infusion, dose 145 → 190 mg m^−2, cycle 2inj1, read-out: CL (observed) (converted)", "value": 817, "unit": "mL/min"}, {"measurement": "Cmax", "setting": "[2]; [5]", "value": 4000, "unit": "ng/mL"}, {"measurement": "half-life", "setting": "[2]; [5]", "value": 46.2, "unit": "min"}, {"measurement": "Vd", "setting": "[2]; in vivo, iv, individual patients, twice weekly i.v. infusion, dose 145 → 190 mg m^−2, cycle 2inj1, read-out: Vz (observed)", "value": 54, "unit": "L"}, {"measurement": "AUC(0-t)", "setting": "[2]; [6]", "value": 5040, "unit": "ng·h/mL"}, {"measurement": "clearance", "setting": "[2]; in vivo, iv, individual patients, twice weekly i.v. infusion, dose 145 → 190 mg m^−2, cycle 2inj8, read-out: CL (observed) (converted)", "value": 1320, "unit": "mL/min"}, {"measurement": "Cmax", "setting": "[2]; [6]", "value": 3340, "unit": "ng/mL"}, {"measurement": "half-life", "setting": "[2]; [6]", "value": 43.2, "unit": "min"}, {"measurement": "Vd", "setting": "[2]; in vivo, iv, individual patients, twice weekly i.v. infusion, dose 145 → 190 mg m^−2, cycle 2inj8, read-out: Vz (observed)", "value": 82, "unit": "L"}, {"measurement": "AUC(0-t)", "setting": "[2]; [7]", "value": 7170, "unit": "ng·h/mL"}, {"measurement": "clearance", "setting": "[2]; in vivo, iv, individual patients, twice weekly i.v. infusion, dose 145 → 190 mg m^−2, cycle 3inj2, read-out: CL (observed) (converted)", "value": 733, "unit": "mL/min"}, {"measurement": "Cmax", "setting": "[2]; [7]", "value": 6520, "unit": "ng/mL"}, {"measurement": "half-life", "setting": "[2]; [7]", "value": 45, "unit": "min"}, {"measurement": "Vd", "setting": "[2]; in vivo, iv, individual patients, twice weekly i.v. infusion, dose 145 → 190 mg m^−2, cycle 3inj2, read-out: Vz (observed)", "value": 48, "unit": "L"}, {"measurement": "clearance", "setting": "[2]; in vivo, range over the 25 evaluable patients, read-out: Plasma clearance (CL)", "value": "767 to 3580", "unit": "mL/min"}, {"measurement": "Vd", "setting": "[2]; in vivo, range over the 25 evaluable patients, read-out: volume of distribution (Vd)", "value": "39 to 215", "unit": "L"}, {"measurement": "AUC", "setting": "[2]; in vivo, at 145 mg m^−2", "value": "3720 ± 930", "unit": "ng·h/mL"}, {"measurement": "AUC", "setting": "[2]; in vivo, at 190 mg m^−2 in patients escalated from 145 mg m^−2 after 2 weeks", "value": "3610 ± 183", "unit": "ng·h/mL"}, {"measurement": "Cmax", "setting": "[2]; [8]", "value": 1740, "unit": "ng/mL"}, {"measurement": "half-life", "setting": "[2]; [8]", "value": 32.4, "unit": "min"}, {"measurement": "Vd", "setting": "[2]; plasma, iv, 48 mg m^−2, individual patients, twice weekly i.v. infusion, dose 48 mg m^−2, cycle 1inj2, read-out: Vz (observed)", "value": 69, "unit": "L"}, {"measurement": "AUC(0-t)", "setting": "[2]; [9]", "value": 630, "unit": "ng·h/mL"}, {"measurement": "clearance", "setting": "[2]; plasma, iv, 48 mg m^−2, individual patients, twice weekly i.v. infusion, dose 48 mg m^−2, cycle 1inj8, read-out: CL (observed) (converted)", "value": 2080, "unit": "mL/min"}, {"measurement": "Cmax", "setting": "[2]; [9]", "value": 2060, "unit": "ng/mL"}, {"measurement": "half-life", "setting": "[2]; [9]", "value": 36.6, "unit": "min"}, {"measurement": "Vd", "setting": "[2]; plasma, iv, 48 mg m^−2, individual patients, twice weekly i.v. infusion, dose 48 mg m^−2, cycle 1inj8, read-out: Vz (observed)", "value": 109, "unit": "L"}, {"measurement": "AUC(0-t)", "setting": "[2]; [10]", "value": 498, "unit": "ng·h/mL"}, {"measurement": "clearance", "setting": "[2]; plasma, iv, 48 mg m^−2, individual patients, twice weekly i.v. infusion, dose 48 mg m^−2, cycle 2inj8, read-out: CL (observed) (converted)", "value": 2630, "unit": "mL/min"}, {"measurement": "Cmax", "setting": "[2]; [10]", "value": 1630, "unit": "ng/mL"}, {"measurement": "half-life", "setting": "[2]; [10]", "value": 34.2, "unit": "min"}, {"measurement": "Vd", "setting": "[2]; plasma, iv, 48 mg m^−2, individual patients, twice weekly i.v. infusion, dose 48 mg m^−2, cycle 2inj8, read-out: Vz (observed)", "value": 131, "unit": "L"}, {"measurement": "AUC(0-t)", "setting": "[2]; [11]", "value": 1500, "unit": "ng·h/mL"}, {"measurement": "clearance", "setting": "[2]; plasma, iv, 65 mg m^−2, individual patients, twice weekly i.v. infusion, dose 65 mg m^−2, cycle 1inj2, read-out: CL (observed) (converted)", "value": 1070, "unit": "mL/min"}, {"measurement": "Cmax", "setting": "[2]; [11]", "value": 4370, "unit": "ng/mL"}, {"measurement": "half-life", "setting": "[2]; [11]", "value": 27, "unit": "min"}, {"measurement": "AUC(0-t)", "setting": "[2]; [12]", "value": 566, "unit": "ng·h/mL"}, {"measurement": "clearance", "setting": "[2]; plasma, iv, 65 mg m^−2, individual patients, twice weekly i.v. infusion, dose 65 mg m^−2, cycle 1inj3, read-out: CL (observed) (converted)", "value": 3170, "unit": "mL/min"}, {"measurement": "Cmax", "setting": "[2]; [12]", "value": 2070, "unit": "ng/mL"}, {"measurement": "half-life", "setting": "[2]; [12]", "value": 12, "unit": "min"}, {"measurement": "Vd", "setting": "[2]; plasma, iv, 65 mg m^−2, individual patients, twice weekly i.v. infusion, dose 65 mg m^−2, cycle 1inj3, read-out: Vz (observed)", "value": 55, "unit": "L"}, {"measurement": "AUC(0-t)", "setting": "[2]; [13]", "value": 1310, "unit": "ng·h/mL"}, {"measurement": "clearance", "setting": "[2]; plasma, iv, 65 mg m^−2, individual patients, twice weekly i.v. infusion, dose 65 mg m^−2, cycle 1inj8, read-out: CL (observed) (converted)", "value": 1230, "unit": "mL/min"}, {"measurement": "Cmax", "setting": "[2]; [13]", "value": 4100, "unit": "ng/mL"}, {"measurement": "half-life", "setting": "[2]; [13]", "value": 43.8, "unit": "min"}, {"measurement": "Vd", "setting": "[2]; plasma, iv, 65 mg m^−2, individual patients, twice weekly i.v. infusion, dose 65 mg m^−2, cycle 1inj8, read-out: Vz (observed)", "value": 78, "unit": "L"}, {"measurement": "AUC(0-t)", "setting": "[2]; [14]", "value": 1810, "unit": "ng·h/mL"}, {"measurement": "clearance", "setting": "[2]; plasma, iv, 85 mg m^−2, individual patients, twice weekly i.v. infusion, dose 85 mg m^−2, cycle 1inj2, read-out: CL (observed) (converted)", "value": 1320, "unit": "mL/min"}, {"measurement": "Cmax", "setting": "[2]; [14]", "value": 2340, "unit": "ng/mL"}, {"measurement": "half-life", "setting": "[2]; [14]", "value": 23.4, "unit": "min"}]}]}
